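Briefly, cells in 96-well plates were exposed to five compound concentrations for 48 h, and endpoints were estimated by linear interpolation. Abbreviation: GI50, concentration required for 50% inhibition of growth. TGI denotes the concentration required for complete inhibition of growth.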
Key:
Experiment in all cases: growth of human tumour cells (NCI), 48 h
[1] = tested on: SW-620 colon
[2] = tested on: SF-268 CNS
[3] = tested on: T-47D breast
[4] = tested on: OVCAR-3 ovarian
[5] = tested on: UO-31 renal
[6] = tested on: K-562 leukemia
[7] = tested on: CAKI-1 renal
[8] = tested on: SNB-75 CNS
[9] = tested on: OVCAR-8 ovarian
[10] = tested on: HS 578T breast

Row | SMILES | TGI [1] | TGI [2] | TGI [3] | TGI [4] | TGI [5] | TGI [6] | TGI [7] | TGI [8] | TGI [9] | TGI [10] | GI50 [4]
1 | Cc1ccc(NC(=O)c2cccc(OP(=O)(O)Nc3ccc(C)cc3)c2)cc1 | > 100 µM | > 100 µM | > 100 µM | > 100 µM | > 100 µM | > 100 µM | > 100 µM | > 100 µM | > 100 µM | > 100 µM | –
2 | Cc1cc(=O)n2nc(CN3CCCCC3)sc2n1 | > 100 µM | > 100 µM | > 100 µM | > 100 µM | > 100 µM | > 100 µM | > 100 µM | > 100 µM | > 100 µM | > 100 µM | –
3 | COc1cc(OC)c2c(=O)c(OC)c(-c3ccc4c(c3)OCO4)oc2c1 | > 100 µM | 66.6 µM | > 100 µM | > 100 µM | > 100 µM | > 100 µM | 60.5 µM | 33.5 µM | > 100 µM | 97.6 µM | –
4 | O=C(O)[C@@H]1CSCN1C(=O)[C@@H]1CCC(=S)N1 | > 100 µM | > 100 µM | > 100 µM | > 100 µM | > 100 µM | > 100 µM | > 100 µM | > 100 µM | > 100 µM | > 100 µM | –
5 | CN(/N=C/c1ccc(OCc2cccc(COc3ccc(C=O)cc3)n2)cc1)c1cnn(-c2ccc(Cl)cc2Cl)c(=O)c1Cl | > 100 µM | > 100 µM | > 100 µM | > 100 µM | > 100 µM | > 100 µM | > 100 µM | 39.9 µM | > 100 µM | > 100 µM | –
6 | CC12CCC([C@H](C(O)C3CCCCC3)C1=O)C2(C)C (stereo partly specified) | > 100 µM | > 100 µM | > 100 µM | > 100 µM | > 100 µM | > 100 µM | > 100 µM | > 100 µM | > 100 µM | > 100 µM | –
7 | CCOP(=O)(O)C1C(CO)OC(n2ccc(=O)[nH]c2=O)C1O (stereo unspecified) | > 100 µM | > 100 µM | > 100 µM | > 100 µM | > 100 µM | > 100 µM | > 100 µM | > 100 µM | > 100 µM | > 100 µM | –
8 | COc1ccc(O)c(/C(C)=N/NC(=S)N(C)C)c1 | > 100 µM | > 100 µM | > 100 µM | > 100 µM | > 100 µM | > 100 µM | > 94.5 µM | > 100 µM | > 100 µM | > 100 µM | –
9 | O=C(N/N=C\c1cccc(O)c1)c1ccncc1 | > 100 µM | > 100 µM | > 100 µM | > 100 µM | > 100 µM | > 100 µM | > 100 µM | > 100 µM | > 100 µM | > 100 µM | –
10 | CCNc1cc2c(cc1O)CC[C@@H]1[C@@H]2CC[C@]2(C)[C@@H](O)CC[C@@H]12 | 19 µM | 37.9 µM | > 55.3 µM | 3.63 µM | 24.3 µM | > 41.4 µM | 27.2 µM | 11.4 µM | 24.1 µM | 35 µM | 0.815 µM
11 | CNc1nc2n(CCO)c(-c3ccccc3)c(-c3ccccc3)nc-2c(=O)n1 | > 50 µM | > 50 µM | > 50 µM | > 50 µM | > 50 µM | > 50 µM | > 50 µM | > 50 µM | > 50 µM | > 50 µM | –
12 | COC(=O)C1=C(C(=O)OC)c2cc(OC)ccc2C(C(=S)N(C)C)S1 (stereo unspecified) | > 100 µM | > 100 µM | > 100 µM | > 100 µM | > 100 µM | > 100 µM | > 100 µM | > 100 µM | > 100 µM | > 100 µM | –
13 | O=C(Cc1ccccc1)N/N=C/c1ccccc1O | > 100 µM | > 100 µM | > 100 µM | > 100 µM | 72.9 µM | > 100 µM | > 100 µM | 59.8 µM | > 100 µM | > 100 µM | –
14 | Cc1ccc2c(c1)C1(C)OC(C=CC1=O)O2 (stereo unspecified) | 1.05 µM | 10.3 µM | 1.65 µM | 1.16 µM | 2.36 µM | 0.902 µM | 1.49 µM | 4.35 µM | 0.803 µM | > 26.6 µM | –
